Measurements reported in patent US8658638B2, “Mineralocorticoid receptor antagonist and methods of use” (priority 2009, dated 2014).

What was measured:
[1] = biological target: T1, human progesterone receptor (PR) (Homo sapiens, UniProt P06401); experiment: Nuclear hormone receptor panel screen (luciferase reporter, HEK293), PR; type: cell-based
T1 construct: expressed in transfected cells; host or cells: HEK293
T1 sequence (P06401 1-933): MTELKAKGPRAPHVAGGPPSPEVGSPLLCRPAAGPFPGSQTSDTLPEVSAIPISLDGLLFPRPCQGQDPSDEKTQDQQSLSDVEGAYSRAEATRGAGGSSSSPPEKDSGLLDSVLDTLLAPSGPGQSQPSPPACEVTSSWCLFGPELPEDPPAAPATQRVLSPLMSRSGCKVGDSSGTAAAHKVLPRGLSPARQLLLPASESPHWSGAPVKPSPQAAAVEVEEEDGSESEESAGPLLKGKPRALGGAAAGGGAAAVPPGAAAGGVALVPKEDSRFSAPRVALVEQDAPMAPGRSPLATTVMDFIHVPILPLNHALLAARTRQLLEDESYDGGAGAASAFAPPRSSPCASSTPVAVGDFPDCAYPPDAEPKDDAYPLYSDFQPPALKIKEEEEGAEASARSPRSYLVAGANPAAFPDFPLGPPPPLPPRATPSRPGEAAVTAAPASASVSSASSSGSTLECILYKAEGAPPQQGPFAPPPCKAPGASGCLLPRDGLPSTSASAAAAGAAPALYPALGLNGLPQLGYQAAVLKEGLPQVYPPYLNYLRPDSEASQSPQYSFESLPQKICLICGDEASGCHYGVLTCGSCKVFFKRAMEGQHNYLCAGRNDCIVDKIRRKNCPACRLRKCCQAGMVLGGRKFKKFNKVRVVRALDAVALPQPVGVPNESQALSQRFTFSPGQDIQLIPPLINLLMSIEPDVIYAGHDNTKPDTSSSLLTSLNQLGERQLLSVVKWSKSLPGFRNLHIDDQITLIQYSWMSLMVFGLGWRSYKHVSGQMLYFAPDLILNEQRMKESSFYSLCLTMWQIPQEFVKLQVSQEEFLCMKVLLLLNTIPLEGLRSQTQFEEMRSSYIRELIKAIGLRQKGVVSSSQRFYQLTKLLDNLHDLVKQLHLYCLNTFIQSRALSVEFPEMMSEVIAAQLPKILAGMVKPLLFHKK
From the text: Aldosterone exerts it physiological effects through interaction with the mineralocorticoid receptor. Following cytoplasmic binding of aldosterone to MR, the ligand receptor complex translocates to the cell nucleus where it binds to hormone response elements on DNA to initiate expression of target genes. […] The solvents, reagents, and ligands employed in the functional assay are readily available from commercial sources, or can be prepared by one of ordinary skill in the art.
Human embryonic kidney HEK293 cells are transfected with steroid hormone receptor and reporter gene plasmids using a suitable transfection reagent such as Fugene™. […] After 24 hours incubation with test compounds, cells are lysed and luciferase activity is determined using standard techniques.
Data are fitted to a four parameter-fit logistic curve to determine EC50 values. […] IC50 values are determined similarly using antagonist mode assay data. In the antagonist mode, percent inhibitions are determined by comparing test compound activity in the presence of low concentration of agonist (0.08 nM aldosterone for MR, 0.25 nM dexamethasone for GR, 0.66 nM of methyltrienolone for AR, and 0.08 nM of promegestone for PR) to the response produced by the same low concentration of agonist in the absence of test compound.

[2] = tested on: uni-nephrectomized Sprague Dawley rats; experiment: In vivo model of aldosterone mediated hypertension; details: orally once daily 1-30 mg/kg/day x 14 days, rat
Description: Male uni-nephrectomized Sprague Dawley rats (240-280 g) are housed individually with ad lib house water and rodent 5001 diet for one week. After acclimation, animals are implanted with Alzet pumps to subcutaneously deliver 0.25 μg/h of aldosterone at 2.5 μl/h for up to 28 days, and maintained on a diet containing 6% NaCl and drinking water containing 0.3% KCl throughout the duration of the study. Radiotelemetry devices are also implanted to monitor arterial blood pressure. For example, signals from each animal are sampled every 10 minutes throughout the study. The mean (±SEM) of all values collected over a twenty four hour period represent the mean daily arterial pressure for each animal.
On the day following pump implantation, test compound in a vehicle comprising 1% medium viscosity sodium carboxy methylcellulose/0.25% polysorbate 80/0.05% Antifoam 1510 ™, or vehicle alone, is then administered by once daily oral gavage (10 mL/kg).

EC50 ([1]; agonist mode): > 10000 nM
IC50 ([1]; antagonist mode, 0.08 nM promegestone): ~924 nM
SMILES: O=c1[nH]c2cc(/C=C3\c4ccccc4COc4cc(F)ccc43)ccc2n1[C@@H]1C[C@@H]2COCCN2C1 [Compound (I), 5-((E)-(3-fluorodibenzo[b,e]oxepin-11(6H)-ylidene)methyl)-1-((7R,8aR)-hexahydro-1H-pyrrolo[2,1-c][1,4]oxazin-7-yl)-1H-benzo[d]imidazol-2(3H)-one]
effect on the hypertensive effects of aldosterone in the presence of salt compared to vehicle [2]: dose dependently reduced the hypertensive effects of aldosterone
